In test [1] the test system is CHL-1 cells. The test can be described thus: Cell proliferation assay (alamarBlue), CHL-1. The note with it: Homo sapiens; CHL-1 (melanoma, BRAF wild-type), 96 hours. Format: cell-based. Here is the method: In accordance with the invention, the ability of the substances to inhibit cell proliferation was determined. Cell viability was determined by means of the alamarBlue® reagent (Invitrogen) in a Victor X3 Multilabel Reader (Perkin Elmer). The excitation wavelength was 530 nm and the emission wavelength […].
The CHL-1 cells (ATCC, CRL-9446) were sown at a concentration of 1000 cells/well in 100 μl of growth medium (DMEM with glutamine, 10% FCS) on 96-well microtitre plates.
After overnight incubation at 37° C., the fluorescence values were determined (CI values). Then the plates were treated with various substance dilutions (1E-5 M, 3E-6 M, 1E-6 M, 3E-7 M, 1E-7 M, 3E-8 M, 1E-8 M) and incubated at 37° C. over 96 hours (MOLM-13, B16F10, CHL-1 cells) or 120 hours (MOLP-8 cells). Subsequently, the fluorescence values were determined (CO values). For the data analysis, the CI values were subtracted from the CO values and the results were compared between cells which had been treated with various dilutions of the substance or only with buffer solution. The IC50 values (substance concentration needed for 50% inhibition of cell proliferation) were calculated therefrom.

The target of test [2] is T1, BRD4 bromo domain 1 [BRD4(1)] (Homo sapiens, UniProt O60885).
T1 construct: N-terminally His6-tagged BRD4(1) (amino acids 67-152); made in house; host or cells: E. coli
The test can be described thus: BRD4/acetylated peptide H4 binding assay (TR-FRET), BRD4 bromo domain 1. Particulars: inhibition of BRD4(1)/Ac-H4 peptide interaction. Put shortly:
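TR-FRET (665/620 nm ratio) measuring displacement of biotinylated tetra-acetylated H4 peptide from His6-BRD4(1) (aa 67-152, E. coli; typically 10 nM) at pH 7.5. Compound (11 concentrations, 0.1 nM–20 μM, duplicates) was preincubated 10 min at 22°C, then 1 h at 22°C and ≥3 h at 4°C; IC50 from 4-parameter fit normalized to DMSO and no-BRD4 controls.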

Molecules are shown by their SMILES.

The IC50 is the concentration that inhibits the measured activity by half. As for `C[C@@H]1C(=O)N(C)c2ccc(Nc3cccc(S(=O)(=O)N4CC(F)(F)C4)c3)nc2N1C1CCN(C)CC1` [Example 29, (3R)-6-({3-[(3,3-Difluoroazetidin-1-yl)sulphonyl]phenyl}amino)-1,3-dimethyl-4-(1-methylpiperidin-4-yl)-3,4-dihydropyrido[2,3-b]pyrazin-2(1H)-one], the results for the IC50 in test [1] and in test [2] were 36 nM and 29 nM, respectively.
Regarding `COc1ccc(S(=O)(=O)N2CC3(COC3)C2)cc1Nc1ccc2c(n1)N(C1CCOCC1)[C@H](C)C(=O)N2C` [Example 30, (3R)-6-{[2-Methoxy-5-(2-oxa-6-azaspiro[3.3]hept-6-ylsulphonyl)phenyl]amino}-1,3-dimethyl-4-(tetrahydro-2H-pyran-4-yl)-3,4-dihydropyrido[2,3-b]pyrazin-2(1H)-one], the IC50 was 80 nM in test [1] and 44 nM in test [2].
With `C[C@@H]1C(=O)N(C)c2ccc(Nc3cccc(S(=O)(=O)NC4CCN(C)CC4)c3)nc2N1Cc1ccccc1` [Example 33, 3-{[(3R)-4-benzyl-1,3-dimethyl-2-oxo-1,2,3,4-tetrahydropyrido[2,3-b]pyrazin-6-yl]amino}-N-(1-methylpiperidin-4-yl)benzenesulphonamide], the IC50 in test [1] stood at 13 nM; in test [2], 22 nM.
For `C[C@@H]1C(=O)N(C)c2ccc(Nc3cccc(S(=O)(=O)N4CCN(CC(F)(F)F)CC4)c3)nc2N1C1CCOCC1` [Example 37, (3R)-1,3-dimethyl-4-(tetrahydro-2H-pyran-4-yl)-6-[(3-{[4-(2,2,2-trifluoroethyl)piperazin-1-yl]sulphonyl}phenyl)-amino]-3,4-dihydropyrido-[2,3-b]pyrazin-2(1H)-one], in that order: 53 nM and 28 nM.
For `C[C@@H]1C(=O)N(C)c2ccc(Nc3cccc(S(=O)(=O)N[C@H]4CC[C@H](N5CCN(CC6CC6)CC5)CC4)c3)nc2N1Cc1ccccc1` [Example 38, 3-{[(3R)-4-benzyl-1,3-dimethyl-2-oxo-1,2,3,4-tetrahydropyrido[2,3-b]pyrazin-6-yl]amino}-N-{trans-4-[4-(cyclopropyl-methyl)piperazin-1-yl]cyclohexyl}-benzenesulphonamide], the IC50 in test [1] and in test [2] was 19 nM each time.
As for `CNS(=O)(=O)c1cccc(Nc2ccc3c(n2)N(C2CCOCC2)[C@H](C)C(=O)N3C)c1` [Example 39, 3-{[(3R)-1,3-dimethyl-2-oxo-4-(tetrahydro-2H-pyran-4-yl)-1,2,3,4-tetrahydropyrido[2,3-b]pyrazin-6-yl]amino}-N-methylbenzenesulphon-amide], the IC50 in test [1] was 63 nM; in test [2] it was 38 nM.
Consider `COc1ccc(S(=O)(=O)N2CCN(C)CC2)cc1Nc1ccc2c(n1)N(C1CCOCC1)[C@H](C)C(=O)N2C` [Example 40, (3R)-6-({2-methoxy-5-[(4-methylpiperazin-1-yl)sulphonyl]phenyl}-amino)-1,3-dimethyl-4-(tetrahydro-2H-pyran-4-yl)-3,4-dihydropyrido[2,3-b]pyrazin-2(1H)-one], for which the results for the IC50 in test [1] and in test [2] were 56 nM and 43 nM, respectively.
For `C[C@@H]1C(=O)N(C)c2ccc(Nc3cccc(S(=O)(=O)N(C)C)c3)nc2N1C1CCN(C)CC1` [Example 41, 3-{[(3R)-1,3-dimethyl-4-(1-methylpiperidin-4-yl)-2-oxo-1,2,3,4-tetrahydropyrido[2,3-b]pyrazin-6-yl]amino}-N,N-dimethylbenzene-sulphonamide], in that order: 21 nM and 20 nM.
For `C[C@@H]1C(=O)N(C)c2ccc(Nc3cccc(S(=O)(=O)NCC4CCN(C)CC4)c3)nc2N1C1CCOCC1` [Example 44, 3-{[(3R)-1,3-dimethyl-2-oxo-4-(tetrahydro-2H-pyran-4-yl)-1,2,3,4-tetrahydropyrido[2,3-b]pyrazin-6-yl]amino}-N-[(1-methylpiperidin-4-yl)methyl]benzene-sulphonamide], in that order: 362 nM and 50 nM.
For `CC(C)CN1c2nc(Nc3cccc(S(=O)(=O)N[C@H]4CC[C@H](N5CCN(CC6CC6)CC5)CC4)c3)ccc2N(C)C(=O)[C@H]1C` [Example 45, N-{trans-4-[4-(cyclopropylmethyl)-piperazin-1-yl]cyclohexyl}-3-{[(3R)-4-isobulyl-1,3-dimethyl-2-oxo-1,2,3,4-tetrahydropyrido[2,3-b]pyrazin-6-yl]amino}-benzenesulphonamide], in that order: 81 nM and 51 nM.
On to `COc1ccc(S(=O)(=O)N2CCN(C)CC2)cc1Nc1ccc2c(n1)N(C1CCN(C)CC1)[C@H](C)C(=O)N2C` [Example 46, (3R)-6-({2-methoxy-5-[(4-methylpiperazin-1-yl)sulphonyl]phenyl}-amino)-1,3-dimethyl-4-(1-methylpiperidin-4-yl)-3,4-dihydropyrido[2,3-b]pyrazin-2(1H)-one], for which the IC50 amounted to 64 nM in test [1] and 51 nM in test [2].
With `C[C@@H]1C(=O)N(C)c2ccc(Nc3cccc(S(=O)(=O)N4CCOCC4)c3)nc2N1C1CCN(C)CC1` [Example 47, (3R)-1,3-dimethyl-4-(1-methylpiperidin-4-yl)-6-{[3-(morpholin-4-ylsulphonyl)phenyl]-amino}-3-4-dihydropyrido-[2,3-b]pyrazin-2(1H)-one], the IC50 in test [1] came to 20 nM; in test [2], 21 nM.
As for `C[C@@H]1C(=O)N(C)c2ccc(Nc3cccc(S(=O)(=O)NC4CCN(C)CC4)c3)nc2N1C1CCCCCC1` [Example 48, 3-{[(3R)-4-cycloheptyl-1,3-dimethyl-2-oxo-1,2,3,4-tetrahydropyrido-[2,3-b]pyrazin-6-yl]amino}-N-(1-methylpiperidin-4-yl)benzenesulphonamide], the figures for the IC50 in test [1] and in test [2] were 111 nM and 75 nM, respectively.
With `C[C@@H]1C(=O)N(C)c2ccc(Nc3cccc(S(=O)(=O)N4CCN(C)CC4)c3)nc2N1C1CCN(C)CC1` [Example 50, (3R)-1,3-dimethyl-6-({3-[(4-methylpiperazin-1-yl)sulphonyl]phenyl}-amino)-4-(1-methyl-piperidin-4-yl)-3,4-dihydropyrido[2,3-b]pyrazin-2(1H)-one], the figures for the IC50 in test [1] and in test [2] were 118 nM and 76 nM, respectively.
For the molecule `C[C@@H]1C(=O)N(C)c2ccc(Nc3cccc(S(=O)(=O)N[C@H]4CC[C@H](N5CCN(CC6CC6)CC5)CC4)c3)nc2N1C1CCN(C(=O)OC(C)(C)C)CC1` [Example 52, tert-butyl 4-[(3R)-6-{[3-({trans-4-[4-(cyclo-propylmethyl)piperazin-1-yl]cyclohexyl}-sulphamoyl)phenyl]amino}-1,3-dimethyl-2-oxo-2,3-dihydropyrido[2,3-b]pyrazin-4(1H)-yl]piperidine-1-carboxylate], the IC50 was determined as 147 nM in test [1] and 80 nM in test [2].
As to `C[C@@H]1C(=O)N(C)c2ccc(N(C)c3cccc(S(=O)(=O)N(C)C)c3)nc2N1C1CCOCC1` [Example 54, 3-{[(3R)-1,3-dimethyl-2-oxo-4-(tetrahydro-2H-pyran-4-yl)-1,2,3,4-tetrahydropyrido[2,3-b]pyrazin-6-yl](methyl)-amino}-N,N-dimethyl-benzenesulphonamide], the figures for the IC50 in test [1] and in test [2] were 156 nM and 106 nM, respectively.

For the origin of these results see patent US20160176867A1, “MODIFIED BET-PROTEIN-INHIBITING DIHYDROQUINOXALINONES AND DIHYDROPYRIDOPYRAZINONES” (BAYER PHARMA AKTIENGESELLSCHAFT, priority 2013, published 2016).
